In ChEMBL document CHEMBL1144719, “1-(1-Arylethylidene)thiosemicarbazide derivatives: a new class of tyrosinase inhibitors” (Bioorg Med Chem, 2008) one finds inhibition and IC50 data, which are given here for 23 molecules.

Structures are written as SMILES.

In one experiment the target is T1, Tyrosinase (Agaricus bisporus) (UniProt O42713).
T1 sequence (whole entry): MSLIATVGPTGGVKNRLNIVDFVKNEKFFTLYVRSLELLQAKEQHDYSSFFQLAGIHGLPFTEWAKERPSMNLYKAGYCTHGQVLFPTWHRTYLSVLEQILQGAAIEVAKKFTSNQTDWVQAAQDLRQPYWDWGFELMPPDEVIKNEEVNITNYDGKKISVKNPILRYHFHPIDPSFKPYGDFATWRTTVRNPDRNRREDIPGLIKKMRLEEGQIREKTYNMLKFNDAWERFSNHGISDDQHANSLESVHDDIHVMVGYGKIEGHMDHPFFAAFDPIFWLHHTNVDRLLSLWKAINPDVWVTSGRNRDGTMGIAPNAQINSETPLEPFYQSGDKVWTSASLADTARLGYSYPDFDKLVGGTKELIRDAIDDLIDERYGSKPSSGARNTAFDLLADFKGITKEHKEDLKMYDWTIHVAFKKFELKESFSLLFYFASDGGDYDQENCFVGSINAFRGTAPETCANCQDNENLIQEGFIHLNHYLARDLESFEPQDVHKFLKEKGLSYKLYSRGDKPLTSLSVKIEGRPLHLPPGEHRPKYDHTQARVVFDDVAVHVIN
Put plainly: Inhibition of mushroom tyrosinase at 0.10 mM.
The inhibition is how much of the control response was suppressed. As for `NC(=S)N/N=C(/C(=O)c1ccccc1)c1ccccc1`, the inhibition was 47%.

The target of another experiment is T1, Tyrosinase (Agaricus bisporus). Put plainly: Inhibition of mushroom tyrosinase at 2 mM.
The molecule `NNC(N)=S` [THIOSEMICARBAZIDE] yielded an inhibition of 39.9%.

`COc1ccc(C(C)=O)cc1` [P-METHOXY-ACETOPHENONE] registered an inhibition of 47.2%.

The target of a further experiment is T2, Tyrosinase (Agaricus bisporus, UniProt O42713).
T2 sequence (O42713 whole entry): T1 sequence (whole entry)
A word on the IC50: it is the concentration that gives 50% inhibition. A low value points to higher potency. `NC(=S)N/N=C(\c1ccccc1)C(O)c1ccccc1` (stereo unspecified): the IC50 came to 55.5 µM.

Take `C/C(=N/NC(N)=S)c1cccnc1`: the IC50 was 0.82 µM.

As for `NNC(N)=S` [THIOSEMICARBAZIDE], 2000 µM corresponded to half-maximal inhibition (IC50).

Molecule `C/C(=N/NC(N)=S)c1ccc(Br)cc1` had an IC50 of 0.52 µM.

For `C/C(=N/NC(N)=S)c1ccccc1` [ACETOPHENONE-THIOSEMICARBAZONE], the IC50 came out at 0.34 µM.

For `C/C(=N/NC(N)=S)c1cccs1`, half-maximal inhibition (IC50) required 0.14 µM.

Molecule `C/C(=N/NC(N)=S)c1ccc(O)cc1` came in with a half-maximal inhibitory concentration (IC50) of 0.31 µM.

`COc1ccc(/C(C)=N\NC(N)=S)cc1` displayed an IC50 of 0.11 µM.

In turn, `C/C(=N/NC(N)=S)c1ccc(F)cc1` showed an IC50 of 0.17 µM.

The molecule `C/C(CCc1ccc(O)cc1)=N/NC(N)=S` returned an IC50 of 0.54 µM.

As for `COc1ccc(C/C(C)=N\NC(N)=S)cc1`, the IC50 was found to be 0.42 µM.

As to `C/C(=N/NC(N)=S)c1cnccn1`, the IC50 was 0.88 µM.

`COc1ccc(C(C)=O)cc1` [P-METHOXY-ACETOPHENONE] gave an IC50 of 2000 µM.

As to `C/C(=N/NC(N)=S)c1c(O)cc(O)cc1O`, inhibition was half-maximal at 22 µM (IC50).

Turning to `C/C(=N/NC(N)=S)c1ccc(C(C)C)cc1`, the concentration for half-maximal inhibition (IC50) was found to be 1 µM.

`NC(=S)N/N=C(/C(=O)c1ccccc1)c1ccccc1` registered an IC50 of 100 µM.

In turn, `C/C(=N/NC(N)=S)c1ccc(O)cc1O` registered an IC50 of 0.58 µM.

`C/C(=N/NC(N)=S)c1ccc(/C(C)=N\NC(N)=S)cc1` returned an IC50 of 0.15 µM.

For the molecule `C/C(=N/NC(N)=S)c1ccc(C)cc1`, half-maximal inhibition (IC50) was put at 0.27 µM.

The molecule `CC(=O)c1ccccc1` [ACETOPHENONE] came in with an IC50 of 850 µM.

The molecule `O=c1cccccc1O` [TROPOLONE] gave an IC50 of 0.4 µM.

Molecule `COc1ccc(/C=C/C(=O)O)cc1` [4-METHOXYCINNAMIC ACID] came in with an IC50 of 410 µM.

`CC(=O)c1ccc(F)cc1`: the IC50 was 990 µM.
